Results: patent US20170258711A1, “Fatty Acid Acylated D-Amino Acids for Oral Peptide Delivery” (Novo Nordisk A/S, priority 2012, published 2017)

System: Caco-2 cells
Experiment: Transepithelial electrical resistance (TEER) of Caco-2 cell monolayers
Format: cell-based
Parameters: unit not given here
Details: for TEER 24 h: 24 h after experiment
Method: Caco-2 cells were obtained from the American Type Culture Collection (Manassas, Va.). Cells were seeded in culturing flasks and passaged in Dulbecco's Modified Eagle′ medium supplemented with 10% fetal bovine serum, 1% penicillin/streptomycin (100 U/ml and 100 μg/ml, respectively), 1% L-glutamine and 1% nonessential amino acids. Caco-2 cells were seeded onto tissue culture treated polycarbonate filters in 12-well Transwell plates (1.13 cm2, 0.4 μm pore size) at a density of 10^5 cells/well. Monolayers were grown in an atmosphere of 5% CO2-95% O2 at 37° C. Growth media were replaced every other day. The experiment was performed on day 10-14 after seeding of Caco-2 cells.
Before and during the experiment the transepithelial electrical resistance (TEER) of the cell monolayers was monitored. In selected experiments, the transport buffer were changed to culturing medium after end of experiment and the TEER measured 24 h after experiment. The TEER was measured with EVOM™ Epithelial Voltohmmeter connected to Chopsticks.

[1] = Table 9, insulin analogue A14E, B25H, B29K(N(eps)Octadecanedioyl-gGlu-OEG-OEG), desB30 human insulin + 0.5 mM fatty acid acylated amino acid
[2] = Table 12, comparison D- with L-counterparts, footnote: insulin analogue A1(Nα,Nα-Dimethyl), A14E, B1(Nα,Nα-dimethyl), B25H, B29K(N(eps)Octadecanedioyl-gGlu-OEG-OEG), desB30 human insulin
[3] = Table 12, comparison D- with L-counterparts
[4] = Table 10, L-amino acid counterparts
[5] = Table 11, insulin analogue A1(Nα,Nα-Dimethyl), A14E, B1(Nα,Nα-dimethyl), B25H, B29K(N(eps)Octadecanedioyl-gGlu-OEG-OEG), desB30 human insulin
[6] = Table 10, L-amino acid counterparts, insulin analogue A14E, B25H, B29K(N(eps)Octadecanedioyl-gGlu-OEG-OEG), desB30 human insulin

CCCCCCCCCC(=O)N[C@H](CC(C)C)C(=O)O [N-decanoyl-D-leucine]
TEER 60 min [1]: 93.8 | TEER 24 h (Table 9, in culturing medium): 100.3 | TEER 60 min [2]: 93.8 | TEER 24 h [3]: 100.3

CCCCCCCCCC(=O)N[C@H](C(=O)O)[C@@H](C)CC [N-decanoyl-L-isoleucine, reference compound]
TEER 60 min [2]: 58.3 | TEER 24 h [3]: 102.4

CCCCCCCCCC(=O)N[C@@H](CC(C)C)C(=O)O [N-decanoyl-L-leucine, reference compound]
TEER 24 h [4]: 101.8 | TEER 24 h (Table 10, L-amino acid counterparts, listed as N-decanoyl-L-Leucine): 102.4 | TEER 60 min [2]: 92.2 | TEER 24 h [3]: 101.8

CCCCCCCCCCCC(=O)N[C@@H](C(=O)O)[C@H](C)CC [N-dodecanoyl-D-isoleucine]
TEER 60 min [2]: 48.3 | TEER 24 h [3]: 101.4

CCCCCCCCCCCC(=O)N[C@H](CC(C)C)C(=O)O [N-dodecanoyl-D-leucine]
TEER 24 h (Table 9, in culturing medium): 100.0 | TEER 24 h (Table 9, in culturing medium, listed as N-dodecanoyl-D-Leucine): 101.4 | TEER 60 min [5]: 50.9 | TEER 24 h [5]: 91.4 | TEER 60 min [2]: 42.8 | TEER 24 h [3]: 100

CCCCCCCCCCCC(=O)N[C@H](Cc1ccccc1)C(=O)O [N-dodecanoyl-D-phenylalanine]
TEER 60 min [1]: 37.6 | TEER 24 h (Table 9, in culturing medium): 108.4 | TEER 60 min [2]: 37.6 | TEER 24 h [3]: 108.4

CCCCCCCCCCCC(=O)N1CCC[C@@H]1C(=O)O [N-dodecanoyl-D-proline]
TEER 60 min [1]: 76.6 | TEER 24 h (Table 9, in culturing medium): 99.1 | TEER 60 min [2]: 76.6 | TEER 24 h [3]: 99.1

CCCCCCCCCCCC(=O)N[C@@H](C(=O)O)C(C)C [N-dodecanoyl-D-valine]
TEER 60 min [1]: 66.1 | TEER 24 h (Table 9, in culturing medium): 99.3 | TEER 60 min [2]: 66.1 | TEER 24 h [3]: 99.3

CCCCCCCCCCCC(=O)N[C@@H](CC(C)C)C(=O)O [N-dodecanoyl-L-leucine, reference compound]
TEER 60 min [6]: 47.8 | TEER 24 h [4]: 107.9 | TEER 60 min [5]: 57.4 | TEER 24 h [5]: 91.7 | TEER 60 min [2]: 47.8 | TEER 24 h [3]: 107.9

CCCCCCCCCCCC(=O)N[C@@H](Cc1ccccc1)C(=O)O [N-dodecanoyl-L-phenylalanine, reference compound]
TEER 60 min [6]: 36.6 | TEER 24 h [4]: 100.4 | TEER 60 min [2]: 36.6 | TEER 24 h [3]: 100.4

CCCCCCCCCCCC(=O)N[C@H](C(=O)O)C(C)C [N-dodecanoyl-L-valine, reference compound]
TEER 60 min [6]: 79.7 | TEER 24 h [4]: 95.3 | TEER 60 min [2]: 79.7 | TEER 24 h [3]: 95.3

CCCCCCCCCCCCCCCC(=O)N[C@H](CC(=O)O)C(=O)O [N-hexadecanoyl-D-aspartic acid]
TEER 60 min [1]: 24.1 | TEER 24 h (Table 9, in culturing medium): 112.2 | TEER 60 min [5]: 74.7 | TEER 24 h [5]: 87.0 | TEER 60 min [2]: 24.1 | TEER 24 h [3]: 112.2

CCCCCCCCCCCCCCCC(=O)N[C@H](CCC(=O)O)C(=O)O [N-hexadecanoyl-D-glutamic acid]
TEER 60 min [1]: 35.6 | TEER 24 h (Table 9, in culturing medium): 106.2 | TEER 60 min [2]: 35.6 | TEER 24 h [3]: 106.2

CCCCCCCCCCCCCCCC(=O)N[C@@H](CC(=O)O)C(=O)O [N-hexadecanoyl-L-aspartic acid, reference compound]
TEER 60 min [6]: 33.2 | TEER 24 h [4]: 112.3 | TEER 60 min [5]: 76.0 | TEER 24 h [5]: 97.2 | TEER 60 min [2]: 33.2 | TEER 24 h [3]: 112.3

CCCCCCCCCCCCCCCC(=O)N[C@@H](CCC(=O)O)C(=O)O [N-hexadecanoyl-L-glutamic acid, reference compound]
TEER 60 min [6]: 72.3 | TEER 24 h [4]: 109.5 | TEER 60 min [2]: 72.3 | TEER 24 h [3]: 109.5

CCCCCCCCCCCCCC(=O)N[C@H](CC(=O)O)C(=O)O [N-tetradecanoyl-D-aspartic acid]
TEER 60 min [1]: 74.2 | TEER 24 h (Table 9, in culturing medium): 96.1 | TEER 60 min [2]: 74.2 | TEER 24 h [3]: 96.1

CCCCCCCCCCCCCC(=O)N[C@H](CCC(=O)O)C(=O)O [N-tetradecanoyl-D-glutamic acid]
TEER 60 min [1]: 79.9 ± 2.9^¤ | TEER 24 h (Table 9, in culturing medium): 102.2 ± 1.9^¤ | TEER 60 min [2]: 79.9 ± 2.9^¤ | TEER 24 h [3]: 102.2 ± 1.9^¤

CCCCCCCCCCCCCC(=O)N[C@H](Cc1c[nH]c2ccccc12)C(=O)O [N-tetradecanoyl-D-tryptophan]
TEER 60 min [1]: 31.3 | TEER 24 h (Table 9, in culturing medium): 109.9 | TEER 60 min [2]: 31.3 | TEER 24 h [3]: 109.9

CCCCCCCCCCCCCC(=O)N[C@H](Cc1ccc(O)cc1)C(=O)O [N-tetradecanoyl-D-tyrosine]
TEER 60 min [1]: 44.4 | TEER 24 h (Table 9, in culturing medium): 125.3 | TEER 60 min [2]: 44.4 | TEER 24 h [3]: 125.3

CCCCCCCCCCCCCC(=O)N[C@@H](CC(=O)O)C(=O)O [N-tetradecanoyl-L-aspartic acid, reference compound]
TEER 60 min [6]: 77.1 | TEER 24 h [4]: 100.2 | TEER 60 min [2]: 77.1 | TEER 24 h [3]: 100.2

CCCCCCCCCCCCCC(=O)N[C@@H](CCC(=O)O)C(=O)O [N-tetradecanoyl-L-glutamic acid, reference compound]
TEER 60 min [6]: 82.0 ± 3.2^¤ | TEER 24 h [4]: 103.1 ± 3.7^¤ | TEER 60 min [2]: 82.0 ± 3.2^¤ | TEER 24 h [3]: 103.1 ± 3.7^¤

CCCCCCCCCCCCCC(=O)N[C@@H](Cc1c[nH]c2ccccc12)C(=O)O [N-tetradecanoyl-L-tryptophan, reference compound]
TEER 60 min [6]: 27.8 | TEER 24 h [4]: 107.9 | TEER 60 min [2]: 27.8 | TEER 24 h [3]: 107.9

CCCCCCCCCCCCCC(=O)N[C@@H](Cc1ccc(O)cc1)C(=O)O [N-tetradecanoyl-L-tyrosine, reference compound]
TEER 60 min [6]: 41.9 | TEER 24 h [4]: 122.3 | TEER 60 min [2]: 41.9 | TEER 24 h [3]: 122.3
